Experimental data as given in patent US20110110879A1, “Compositions and Methods for Enhancing Eyelashes” (Avon Products, Inc., priority 2009, published 2011).

Experiments:
keratin 5 = assay: In vitro assay for keratin 5 production in keratinocytes; assay type: cell-based; details: concentration of 0.01%
[1] = test system: lipid peroxidation in keratinocytes; assay: In vitro assay of lipid peroxidation in keratinocytes; assay type: cell-based; details: concentration of 0.001%
collagen IV = details: fibroblasts; concentrations of 2×10^−5% and 2×10^−6%
fibronectin = details: fibroblasts; concentrations of 2×10^−5% and 2×10^−6%
MMP-3 = MMP-3 (Homo sapiens, UniProt P08254); assay: In vitro assay of MMP-3 enzymatic activity; assay type: biochemical; details: concentration of 2×10^−7%
elastin = details: fibroblasts; concentrations of 2×10^−5% and 2×10^−6%

MMP-3, sequence (P08254 100-477, species assumed): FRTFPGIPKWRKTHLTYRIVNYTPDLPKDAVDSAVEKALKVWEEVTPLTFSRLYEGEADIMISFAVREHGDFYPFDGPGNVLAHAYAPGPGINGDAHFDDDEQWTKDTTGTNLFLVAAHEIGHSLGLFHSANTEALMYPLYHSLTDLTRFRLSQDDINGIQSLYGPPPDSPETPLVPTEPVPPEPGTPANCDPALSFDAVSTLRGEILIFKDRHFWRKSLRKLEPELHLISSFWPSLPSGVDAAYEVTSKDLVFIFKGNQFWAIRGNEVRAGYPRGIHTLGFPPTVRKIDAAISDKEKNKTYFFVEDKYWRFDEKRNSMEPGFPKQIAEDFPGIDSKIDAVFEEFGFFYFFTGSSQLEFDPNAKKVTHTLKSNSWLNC

CN(CC(=O)O)C(=N)N [creatine]
keratin 5 production (keratin 5): can increase keratin 5 production

CC(=O)Oc1c(C)c(C)c2c(c1C)CCC(C)(CCC[C@H](C)CCC[C@H](C)CCCC(C)C)O2 (stereo partly drawn) [tocopherol acetate]
lipid peroxidation [1]: can inhibit lipid peroxidation

N-biotinyl-gly-his-lys
production of collagen IV (collagen IV): can increase production | production of fibronectin (fibronectin): can increase production | enzymatic activity of MMP-3 (MMP-3): can decrease enzymatic activity | production of elastin (elastin): can increase production
